Several values for one entry are separate records, joined by “and”; a condition that tells them apart may be missing. Identical values can stand only once. Like-named read-outs stand apart in the source and are kept apart here.
Tests used:
tbaqp2 null (AQP2-KO) = assay: Drug sensitivity assay (resazurin); assay type: cell-based; details: Trypanosoma brucei
tbaqp2/tbaqp3 null cells = assay: microbe, parasite or virus in culture; assay type: cell-based, Trypanosoma brucei brucei; details: for EC50: Trypanosoma brucei
[1] = tested on: tbaqp2/tbaqp3 null cells expressing TbAQP2^L264R; assay type: cell-based, Trypanosoma brucei brucei
[2] = tested on: tbaqp2/tbaqp3 null cells expressing TbAQP2 L84W; assay: microbe, parasite or virus in culture; assay type: cell-based, Trypanosoma brucei brucei
[3] = tested on: tbaqp2/tbaqp3 null cells expressing TbAQP2 L218M; assay: microbe, parasite or virus in culture; assay type: cell-based, Trypanosoma brucei brucei
[4] = tested on: tbaqp2/tbaqp3 null cells expressing TbAQP2^I110W/L264R; assay type: cell-based, Trypanosoma brucei brucei
T. b. brucei 2T1 = assay: Drug sensitivity assay (resazurin); assay type: cell-based; details: Trypanosoma brucei
Protocol: The tbaqp2/tbaqp3 null cells ([Baker et al., 2012]) and tbaqp1-2-3 null cells ([Jeacock et al., 2017]) (both obtained from David Horn, University of Dundee, UK) are derived from the 2T1 strain of T. b. brucei ([Alsford and Horn, 2008]). The CRK12 RNAi cell line^28 was obtained from Dr Tansy Hammarton (University of Glasgow, UK) and is also based on the 2T1 cell line; RNAi expression was induced with 1 µg/ml tetracycline in the medium. All experiments were performed with bloodstream form trypanosomes grown in vitro in HMI-11 medium as described ([Wallace et al., 2002]) at 37°C in a 5% CO2 atmosphere. Cultures were routinely maintained in 10 ml of this medium, being seeded at 5 × 10^4 cells/ml and passed to fresh medium at reaching approximately 3 × 10^6 cells/ml after 48 hr. For transport experiments 150 or 200 ml of culture was seeded at the same density in large flasks and incubated until the culture reached late-log phase.
Drug sensitivity assays for T. b. brucei bloodstream forms used the cell viability dye resazurin (Sigma) and were performed exactly as described ([Wallace et al., 2002]; [Bridges et al., 2007]) in 96-well plates with doubling dilutions of test compound, starting at 100 µM, over 2 rows of the plate (23 dilutions plus no-drug control). Incubation time with test compound was 48 hr (37°C/5% CO2), followed by an additional 24 hr in the presence of the dye.

[5] = tested on: tbaqp2/tbaqp3 null cells expressing TbAQP2 L218W; assay: microbe, parasite or virus in culture; assay type: cell-based, Trypanosoma brucei brucei
[6] = tested on: tbaqp2/tbaqp3 null cells expressing TbAQP2 L84M; assay: microbe, parasite or virus in culture; assay type: cell-based, Trypanosoma brucei brucei
[7] = tested on: tbaqp2/tbaqp3 null cells expressing TbAQP2WT; assay: microbe, parasite or virus in culture; assay type: cell-based, Trypanosoma brucei brucei; details: for EC50: Trypanosoma brucei
TbAQP2/HAPT1 = TbAQP2/HAPT1 (Trypanosoma brucei brucei, UniProt Q6ZXT3); assay: cell-based; assay type: cell-based
[8] = tested on: tbaqp2/tbaqp3 null cells expressing TbAQP2 L118M; assay: microbe, parasite or virus in culture; assay type: cell-based, Trypanosoma brucei brucei
[9] = tested on: tbaqp2/tbaqp3 null cells expressing TbAQP2^I110W; assay type: cell-based, Trypanosoma brucei brucei
[10] = tested on: tbaqp2/tbaqp3 null cells expressing TbAQP2 L118W; assay: microbe, parasite or virus in culture; assay type: cell-based, Trypanosoma brucei brucei
[11] = tested on: tbaqp2/tbaqp3 null cells expressing TbAQP2^S131P/S263A; assay type: cell-based, Trypanosoma brucei brucei
[12] = tested on: tbaqp2/tbaqp3 null cells expressing TbAQP2^L258Y; assay type: cell-based, Trypanosoma brucei brucei
[13] = tested on: TbAQP2 expressed in tbaqp2 null; assay: Drug sensitivity assay (resazurin); assay type: cell-based; details: Trypanosoma brucei
[14] = tested on: tbaqp1-2-3 null cells expressing TbAQP2 position 84, 118 and 218 Trp and Met mutants; assay: Drug sensitivity assay (resazurin), pentamidine and SHAM; assay type: cell-based, Trypanosoma brucei brucei
[15] = tested on: tbaqp1-2-3 null cells expressing TbAQP2WT; assay: as above; assay type: cell-based, Trypanosoma brucei brucei; details: +AQP2 W.T in KO AQP1-3
tbaqp1-2-3 null cells = assay: as above; assay type: cell-based, Trypanosoma brucei brucei; details: KO AQP1-3
[16] = read-out: EC50 AQP2-KO AVG, AQP2-KO / tbaqp2 null, 48 h drug + 24 h resazurin
[17] = Trypanosoma brucei, read-out: EC50, MEAN
[18] = Trypanosoma brucei, read-out: EC50, single repeats
[19] = Trypanosoma brucei, read-out: EC50, MEAN (nM)
[20] = 48 h drug + 24 h resazurin, read-out: EC50 control 2T1 AVG
[21] = 3 repeats, read-out: EC50, MEAN

Chain of TbAQP2/HAPT1 (Q6ZXT3 whole entry): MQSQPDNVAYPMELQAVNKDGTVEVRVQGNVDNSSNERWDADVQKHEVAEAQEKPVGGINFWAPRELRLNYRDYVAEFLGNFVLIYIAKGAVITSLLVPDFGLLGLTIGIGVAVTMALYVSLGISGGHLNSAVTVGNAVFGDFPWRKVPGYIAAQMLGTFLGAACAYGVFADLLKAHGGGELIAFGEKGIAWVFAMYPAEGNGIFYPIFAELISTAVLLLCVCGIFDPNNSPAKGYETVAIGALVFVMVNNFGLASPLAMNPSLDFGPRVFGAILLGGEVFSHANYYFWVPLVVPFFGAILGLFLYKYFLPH

N=C(N)c1ccc(/N=N/Nc2ccc(C(=N)N)cc2)cc1 [Diminazene]
EC50 (tbaqp2 null (AQP2-KO); [16]): 0.108 µM
EC50 (% of aqp2/aqp3 null), MEAN (tbaqp2/tbaqp3 null cells): 100.00 % of aqp2/aqp3 null
EC50, MEAN (% KO) (tbaqp2/tbaqp3 null cells): 100.00 % KO
EC50, percent of AQP2/3 null EC50 (tbaqp2/tbaqp3 null cells): 100.00%
EC50 as percent of AQP2/3 null EC50, MEAN (tbaqp2/tbaqp3 null cells): 100.00%
EC50 as percent of AQP2/3 null EC50, single repeats (tbaqp2/tbaqp3 null cells): 100%
EC50 (tbaqp2/tbaqp3 null cells; read-out: EC50, MEAN): 76 nM
EC50 (tbaqp2/tbaqp3 null cells; read-out: EC50, MEAN (nM)): 175 nM
EC50, percent of AQP2/3 null EC50 [1]: 99.35%
EC50 (% of aqp2/aqp3 null), MEAN [2]: 113.28 % of aqp2/aqp3 null
EC50 (% of aqp2/aqp3 null), single repeats [2]: 126.86 % of aqp2/aqp3 null and 125.65 % of aqp2/aqp3 null and 87.33 % of aqp2/aqp3 null
EC50 [2, 17]: 0.0861 µM
EC50 [2, 18]: 0.0964 µM
EC50 ([2]; read-out: EC50, single repeats): 0.0955 µM and 0.0664 µM
EC50, MEAN (% KO) [3]: 48.28 % KO
Sensitisation relative to tbaqp2/tbaqp3 null [3]: ~ 2 fold
EC50 [3, 19]: 54 nM
EC50 [3, 18]: 38.7 nM
EC50 ([3]; read-out: EC50, single repeats): 61.5 nM and 61.9 nM and 39.1 nM and 34.8 nM and 41.6 nM
EC50 as percent of AQP2/3 null EC50, MEAN [4]: 108.15%
EC50 (T. b. brucei 2T1; [20]): 0.122 µM
EC50 (% of aqp2/aqp3 null), MEAN [5]: 38.99 % of aqp2/aqp3 null
Sensitisation relative to tbaqp2/tbaqp3 null [5]: ~ 2 fold
EC50 [5, 17]: 0.0296 µM
EC50, MEAN (% KO) [6]: 99.61 % KO
EC50 [6, 19]: 145 nM
EC50 (% of aqp2/aqp3 null), MEAN [7]: 97.55 % of aqp2/aqp3 null
EC50, MEAN (% KO) [7]: 98.90 % KO
EC50, percent of AQP2/3 null EC50 [7]: 96.75% and 102.22% and 102.99% and 78.60%
EC50 as percent of AQP2/3 null EC50, MEAN [7]: 102.99%
EC50 ([7]; read-out: EC50, MEAN): 74.2 nM
EC50 ([7]; read-out: EC50, MEAN (nM)): 149 nM
ΔG0 (TbAQP2/HAPT1): -5.74 kcal/mol
δ(ΔG0) (TbAQP2/HAPT1): 4.45 kcal/mol
Ki (TbAQP2/HAPT1; HAPT Ki, AVG): 62.5 µM
Ki (TbAQP2/HAPT1; Ki): 63 µM
EC50, MEAN (% KO) [8]: 93.77 % KO
EC50 [8, 19]: 177 nM
EC50, percent of AQP2/3 null EC50 [9]: 114.65%
EC50 (% of aqp2/aqp3 null), MEAN [10]: 95.82 % of aqp2/aqp3 null
EC50 (% of aqp2/aqp3 null), single repeats [10]: 118.42 % of aqp2/aqp3 null and 101.85 % of aqp2/aqp3 null and 67.18 % of aqp2/aqp3 null
EC50 [10, 17]: 0.0728 µM
EC50 [10, 18]: 0.09 µM
EC50 ([10]; read-out: EC50, single repeats): 0.0774 µM and 0.0511 µM
EC50, percent of AQP2/3 null EC50 [11]: 93.48%
EC50, percent of AQP2/3 null EC50 [12]: 105.69%

CC[n+]1c(-c2ccccc2)c2cc(N)ccc2c2ccc(N)cc21 [Ethidium]
EC50 (tbaqp2 null (AQP2-KO); [16]): 1.39 µM
EC50 (tbaqp2/tbaqp3 null cells): 1380 ± 140 nM
EC50 (T. b. brucei 2T1; [20]): 1.32 µM
ΔG0 (TbAQP2/HAPT1): -5.47 kcal/mol
δ(ΔG0) (TbAQP2/HAPT1): 4.71 kcal/mol
Ki (TbAQP2/HAPT1; Ki): 97 µM
EC50 [13]: 1.35 ± 0.11 µM

CC[n+]1c(-c2ccccc2)c2cc(N/N=N/c3cccc(C(=N)N)c3)ccc2c2ccc(N)cc21 [Isometamidium]
EC50 (tbaqp2 null (AQP2-KO); [16]): 0.103 µM
EC50 (tbaqp2 null (AQP2-KO); tbaqp2 null, read-out: EC50): 0.103 ± 0.014 µM
EC50 (tbaqp2/tbaqp3 null cells): 95 ± 12 nM
EC50 (T. b. brucei 2T1; [20]): 0.112 µM
EC50 (T. b. brucei 2T1; read-out: EC50): 0.112 ± 0.012 µM
ΔG0 (TbAQP2/HAPT1): -7.43 kcal/mol
δ(ΔG0) (TbAQP2/HAPT1): 2.72 kcal/mol
Ki (TbAQP2/HAPT1; HAPT Ki, AVG): 3.54 µM
Ki (TbAQP2/HAPT1; Ki): 3.5 µM
EC50 [13]: 0.098 ± 0.024 µM

O=C(NO)c1ccccc1O [SHAM]
EC50 ([14]; +L84M in KO AQP1-3, 3 repeats, read-out: EC50, MEAN): 18.1 µM
EC50 ([14]; +L84M in KO AQP1-3, read-out: EC50, single repeats): 17.6 µM and 17.7 µM and 19.1 µM
EC50 ([14]; +L84W in KO AQP1-3, 3 repeats, read-out: EC50, MEAN): 13.2 µM
EC50 ([14]; +L84W in KO AQP1-3, read-out: EC50, single repeats): 11.3 µM and 13.7 µM and 14.6 µM
EC50 ([14]; +L84W/L118W in KO AQP1-3, 3 repeats, read-out: EC50, MEAN): 12.2 µM
EC50 ([14]; +L84W/L118W in KO AQP1-3, read-out: EC50, single repeats): 11.7 µM and 12.3 µM and 12.6 µM
EC50 ([14]; +L118M in KO AQP1-3, 3 repeats, read-out: EC50, MEAN): 11.5 µM
EC50 ([14]; +L118M in KO AQP1-3, read-out: EC50, single repeats): 10.9 µM and 12.3 µM and 11.4 µM
EC50 ([14]; +L118W in KO AQP1-3, 3 repeats, read-out: EC50, MEAN): 10.8 µM
EC50 ([14]; +L118W in KO AQP1-3, read-out: EC50, single repeats): 10.4 µM and 11.1 µM and 10.9 µM
EC50 ([14]; +L218M in KO AQP1-3, 3 repeats, read-out: EC50, MEAN): 15.2 µM
EC50 ([14]; +L218M in KO AQP1-3, read-out: EC50, single repeats): 15.8 µM and 12.7 µM and 17.1 µM
EC50 ([14]; +L218W in KO AQP1-3, 3 repeats, read-out: EC50, MEAN): 15.9 µM
EC50 ([14]; +L218W in KO AQP1-3, read-out: EC50, single repeats): 14.7 µM and 16.3 µM and 16.9 µM
EC50 [15, 21]: 18.6 µM
EC50 ([15]; read-out: EC50, single repeats): 18.5 µM and 18.1 µM and 19.2 µM
EC50 (tbaqp1-2-3 null cells; [21]): 7.9 µM
EC50 (tbaqp1-2-3 null cells; read-out: EC50, single repeats): 7.38 µM and 7.93 µM and 8.39 µM
